Where two headings read alike, the source gives them in different places.
How the values were obtained:
hERG = hERG (Homo sapiens, UniProt Q12809); assay: hERG assay: block of rubidium ion (Rb+) efflux from cells expressing hERG; details: for Blocking of hERG channel compared with PRC200-SS: in words
Procedure: Human “ether-a-go-go” (hERG) is an ion channel. Blockade of this channel can be predictive of causing cardiac arrhythmias in humans. hERG assays were performed to measure the ability of a compound to block rubidium ion (Rb^+) efflux from cells expressing hERG. Cells were pre-loaded with Rb^+, incubated with test compound, and then exposed to a buffer that opens the channel and allows the efflux of ions. Compounds as powder were dissolved in 100% DMSO to prepare 100 mM stock solutions. […] The stocks were stored at 23° C.
The range of doses for the test compounds was 30 nM through 100,000 nM.

[1] = biological target: T1, human serotonin transporter (hSERT) (Homo sapiens, UniProt P31645); assay: Radioligand binding to cloned hSERT, [3H]citalopram, HEK-293 cell membranes
T1 construct: expressed in transfected cells; host or cells: HEK-293, stably transfected
T1 sequence (P31645 whole entry): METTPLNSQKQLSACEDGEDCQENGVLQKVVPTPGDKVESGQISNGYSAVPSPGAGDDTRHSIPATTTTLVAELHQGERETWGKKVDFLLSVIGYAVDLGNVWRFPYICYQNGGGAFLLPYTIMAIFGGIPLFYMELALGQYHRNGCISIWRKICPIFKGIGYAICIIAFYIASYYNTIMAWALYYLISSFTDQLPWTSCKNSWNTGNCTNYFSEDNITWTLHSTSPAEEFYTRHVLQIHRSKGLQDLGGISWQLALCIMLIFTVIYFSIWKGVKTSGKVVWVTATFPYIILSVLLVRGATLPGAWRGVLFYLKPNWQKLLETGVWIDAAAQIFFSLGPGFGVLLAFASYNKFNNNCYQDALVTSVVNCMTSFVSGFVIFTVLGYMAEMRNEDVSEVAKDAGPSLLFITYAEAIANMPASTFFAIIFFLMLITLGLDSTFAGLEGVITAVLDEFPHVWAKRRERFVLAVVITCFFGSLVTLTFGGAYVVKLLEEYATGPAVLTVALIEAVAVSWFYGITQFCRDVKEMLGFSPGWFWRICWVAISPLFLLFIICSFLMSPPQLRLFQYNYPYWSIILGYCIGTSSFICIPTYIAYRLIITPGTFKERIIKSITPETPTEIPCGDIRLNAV
Procedure: (§1) HEK-293 cells expressing the recombinant hSERT or hDAT were incubated with Dulbecco's modified Eagles medium (MEM) supplemented with 0.1 mM nonessential amino acid solution for MEM, 5% v/v fetal bovine serum and 1 U/mL penicillin/streptomycin solution. Cells expressing the hNET transporter were incubated with Dulbecco's modified Eagles medium supplemented with 10% v/v fetal bovine serum and 100 U/mL penicillin/streptomycin solution and 2 mM L-glutamine. The cells were grown until 70-80% confluent on 175 cm^2 flasks in a humidified 10% CO2/90% air environment at 37° C., with the selecting antibiotic Geneticin sulfate at 250 μg/mL. The cells were incubated in 10% CO2, 90% air at 37° C. and 100% humidity.
(§2) Cell membranes containing hSERT, hNET, or hDAT were prepared from the cell lines to assay ligand binding for each of the transporters. […] The washed cells were incubated for 5 minutes at 37° C. in 10 mL solution 1 containing 100 mM ethylene glycol-bis N,N,N′,N′-tetraacetic acid (EGTA). The cells were then scraped from the flask surface with a rubber spatula, placed into a centrifuge tube, and collected by centrifugation at 1000×g for 5 minutes at 4° C. The resulting supernatant was discarded, and the cell pellet was resuspended in 0.5 to1.0 mL of the appropriate binding buffer (described below). The resuspended cell pellet was homogenized using a Polytron for 10 seconds at setting 6. The resulting homogenate was centrifuged at about 36,000×g for 10 minutes at 4° C. The supernatant was discarded, and the pellet was resuspended in the same volume of the appropriate binding buffer and centrifuged again. The supernatant was discarded, and the final pellet containing cell membranes was resuspended in the appropriate binding buffer and stored at −80° C. until use.
Radioligand binding assays for the indicated transporters were performed as follows. To assess binding to the cloned hSERT, cells expressing hSERT were homogenized in 50 mM Tris-HCl with 120 mM NaCl and 5 mM KCl (pH 7.4). The binding reaction consisted of 10 μg cell membrane protein, […] [^3H]citalopram (citalopram, [N-methyl-^3H], specific activity 79.0 Ci/mmol; PerkinElmer, Boston, Mass.), and varying concentrations of either unlabeled citalopram or the test compound. A reaction to determine non-specific binding consisted of 10 μg cell membrane protein, 0.5 nM [^3H]citalopram, and 1 μM final concentration of unlabeled citalopram. The reactions were incubated at 22° C. for 60 minutes. Following incubation, the reactions were terminated by rapid filtration through separate GF/B filter strips pretreated with 0.2% polyethylenimine in a 48-well Brandel cell harvester. The cell membrane-containing filter strips were then rinsed five times with ice-cold 0.9% NaCl. After rinsing, individual filters were cut from the strip and placed in a scintillation vial containing 6.5 mL of Redi-Safe (Beckman-Coulter, Fullerton, Calif.).
(§3) The program was modified to calculate the Hill coefficient (nH). Data are presented as geometric mean±S.E.M. of at least three independent experiments. One-component models and two-component models were compared using the root mean square error of each fit and the F test.

Male Sprague-Dawley rats = assay: Forced swim test in rats; type: in vivo, rat; details: 5 mg/kg IP; for Antidepressant activity in forced swim test compared with imipramine (15 mg/kg IP): FIG. 12A
Procedure: When rats are placed in a cylinder of water from which they cannot escape, they will remain immobile in the water for the majority of the test.
Water was changed between trials, and the procedure involved a pretest and a 5-minute test separated by 24 hours. During the pretest, rats (adapted to the experimental room for no less than one hour) were placed in the cylinder for 15 minutes. Following this initial exposure, the rats were dried with towels and transferred to a “drying cage” situated under a warming lamp. […] The following day, rats were transferred to the experimental room and acclimated for at least one hour.
The rat was considered immobile when floating motionless or making only those movements necessary to keep its head above the surface of the water. Scores for each behavior (swimming or immobility) were expressed as total counts per 5-minute session. Statistical analysis was performed using ANOVA followed by the Tukey test for post-hoc comparisons.

[2] = biological target: T2, human dopamine transporter (hDAT) (Homo sapiens, UniProt Q01959); assay: Radioligand binding to cloned hDAT, [3H]WIN35428, HEK-293 cell membranes
T2 construct: expressed in transfected cells; host or cells: HEK-293, stably transfected
T2 sequence (Q01959 whole entry): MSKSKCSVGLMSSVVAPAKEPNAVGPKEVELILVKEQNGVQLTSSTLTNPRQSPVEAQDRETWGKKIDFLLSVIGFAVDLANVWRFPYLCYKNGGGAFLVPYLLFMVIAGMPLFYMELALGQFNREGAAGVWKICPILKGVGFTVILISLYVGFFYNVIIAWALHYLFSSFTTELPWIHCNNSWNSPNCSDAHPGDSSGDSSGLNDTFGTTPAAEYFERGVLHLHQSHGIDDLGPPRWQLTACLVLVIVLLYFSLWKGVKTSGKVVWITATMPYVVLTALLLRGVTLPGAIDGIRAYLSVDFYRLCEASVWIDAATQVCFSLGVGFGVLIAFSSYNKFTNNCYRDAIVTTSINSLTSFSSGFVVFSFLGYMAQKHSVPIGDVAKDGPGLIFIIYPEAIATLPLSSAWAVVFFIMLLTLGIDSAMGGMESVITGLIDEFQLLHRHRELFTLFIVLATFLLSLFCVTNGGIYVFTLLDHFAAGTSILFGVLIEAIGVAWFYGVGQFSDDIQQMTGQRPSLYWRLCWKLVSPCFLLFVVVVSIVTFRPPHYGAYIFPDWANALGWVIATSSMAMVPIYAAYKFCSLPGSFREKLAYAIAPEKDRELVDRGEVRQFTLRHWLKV
Procedure: as §1, §2
To assess binding to the cloned hDAT, cells expressing hDAT were homogenized in 50 mM Tris-HCl with 120 mM NaCl (pH 7.4). The binding reaction contained 15 μg cell membrane protein, 1 nM [^3H]WIN35428 (WIN35428, [N-methyl-^3H], specific activity 85.9 Ci/mmol; PerkinElmer, Boston, Mass.), and varying concentrations of either unlabeled WIN35428 or the test compound. A reaction to determine non-specific binding contained 15 μg cell membrane protein, 1 nM [^3H]WIN35428, and 10 μM final concentration of unlabeled WIN35428. The reactions were incubated at 22° C. for 1 hour. Following incubation, the reactions were terminated by rapid filtration through separate GF/B filter strips pretreated with 0.2% polyethylenimine in a 48-well Brandel cell harvester. The cell membrane-containing filter strips were then rinsed five times with ice-cold 0.9% NaCl. After rinsing, individual filters were cut from the strip and placed in a scintillation vial containing 6.5 mL of Redi-Safe (Beckman-Coulter, Fullerton, Calif.).
as §3

hSERT, hNET, hDAT = assay: Human transporter binding: rank order and range of potency over the three transporters; details: for Potency (rank-order of potency of binding; S = hSERT, N = hNET, D = hDAT): from KD values; for Potency Range (difference between most potent and least potent binding): ratio of KD over hSERT, hNET, hDAT
Text: as §3

CYP2D6 = biological target: T3, CYP2D6 (Homo sapiens, UniProt P10635); assay: CYP2D6 inhibition, CYP2D6/AMMC kit (BD Biosciences), fluorescent substrate; type: in vitro ADME
T3 construct: purchased BD Biosciences 459200
T3 sequence (P10635 whole entry): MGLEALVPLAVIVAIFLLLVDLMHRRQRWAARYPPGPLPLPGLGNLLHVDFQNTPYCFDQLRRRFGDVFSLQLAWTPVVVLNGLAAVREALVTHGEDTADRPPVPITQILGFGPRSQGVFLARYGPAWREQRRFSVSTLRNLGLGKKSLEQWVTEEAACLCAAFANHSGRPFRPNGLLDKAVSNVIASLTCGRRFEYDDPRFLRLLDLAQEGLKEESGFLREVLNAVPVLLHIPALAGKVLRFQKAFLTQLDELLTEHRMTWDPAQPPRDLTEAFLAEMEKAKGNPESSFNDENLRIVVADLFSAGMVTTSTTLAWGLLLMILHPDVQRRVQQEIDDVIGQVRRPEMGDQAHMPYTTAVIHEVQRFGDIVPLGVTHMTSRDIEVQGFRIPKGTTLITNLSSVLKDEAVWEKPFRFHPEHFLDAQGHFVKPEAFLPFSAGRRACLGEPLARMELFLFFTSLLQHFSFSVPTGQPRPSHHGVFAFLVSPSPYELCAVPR
Text: This kit includes the use of a fluorescent P450 substrate (AMMC or 3-[2-(N,N-diethyl-N-methylamino)ethyl]-7-methoxy-4-methylcoumarin) and recombinant human P450.

[3] = test system: rat 5-HT, NE and DA transport, synaptosomal preparations; assay: Rat brain synaptosomal transport: rank order of potency; type: biochemical; details: from Ki values; S = 5HT, N = NE, D = DA
Procedure: (§4) The dissected tissues were separately homogenized in 20 volumes (cortical) or 40 volumes (striatal) of ice-cold, oxygenated HEPES buffer 0.32 M sucrose containing 11 mM glucose (pH 7.4) in a glass Potter-Elvehjem homogenizer with Teflon® pestle (8 strokes, 900 rpm). The homogenates were centrifuged at 1,000×g for 10 minutes. The resulting supernatant was decanted and further centrifuged at 20,000×g for 20 minutes at 4° C. […] The synaptosomal protein concentration was determined by using the BCA assay (Pierce Biotechnology Inc, Rockford, Ill.), according to the manufacturer's instructions. Synaptosomal protein (1.0-2.5 mg) was suspended in 1 mL oxygenated incubation buffer as defined above. Test amine compound was pre-incubated with the synaptosomal preparation for 30 minutes at 37° C. in a shaking water bath (80 oscillations/minute).

[4] = biological target: T4, rat serotonin transporter, synaptosomal preparations (Rattus norvegicus, UniProt P31652); assay: Inhibition of [3H]5-HT reuptake in rat brain synaptosomes (frontal cortex); type: biochemical
T4 construct: from tissue; host or cells: rat frontal cortex synaptosomes (male Sprague-Dawley)
T4 sequence (P31652 whole entry): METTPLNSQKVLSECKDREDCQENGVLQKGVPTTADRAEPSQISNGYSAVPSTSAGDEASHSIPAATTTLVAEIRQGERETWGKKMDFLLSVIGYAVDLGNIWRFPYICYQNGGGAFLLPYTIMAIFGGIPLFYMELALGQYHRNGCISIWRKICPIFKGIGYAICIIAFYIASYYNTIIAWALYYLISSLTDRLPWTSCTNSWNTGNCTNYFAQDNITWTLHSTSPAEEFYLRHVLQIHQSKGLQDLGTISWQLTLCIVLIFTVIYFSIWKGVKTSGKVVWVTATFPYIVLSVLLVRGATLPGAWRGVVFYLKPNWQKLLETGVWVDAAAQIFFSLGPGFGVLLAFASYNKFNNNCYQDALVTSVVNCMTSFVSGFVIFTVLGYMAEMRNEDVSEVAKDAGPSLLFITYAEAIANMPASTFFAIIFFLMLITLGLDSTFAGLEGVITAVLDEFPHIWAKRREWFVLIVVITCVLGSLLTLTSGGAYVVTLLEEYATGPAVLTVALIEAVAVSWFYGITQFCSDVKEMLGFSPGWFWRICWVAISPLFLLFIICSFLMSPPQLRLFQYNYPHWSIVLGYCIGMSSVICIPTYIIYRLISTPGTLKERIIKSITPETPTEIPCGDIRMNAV
Procedure: as §4

[5] = biological target: T5, rat dopamine transporter, synaptosomal preparations (Rattus norvegicus, UniProt P23977); assay: Inhibition of [3H]DA reuptake in rat brain synaptosomes (striatum); type: biochemical
T5 construct: and striatal tissues for transport of dopamine; from tissue; host or cells: rat striatum synaptosomes (male Sprague-Dawley)
T5 sequence (P23977 whole entry): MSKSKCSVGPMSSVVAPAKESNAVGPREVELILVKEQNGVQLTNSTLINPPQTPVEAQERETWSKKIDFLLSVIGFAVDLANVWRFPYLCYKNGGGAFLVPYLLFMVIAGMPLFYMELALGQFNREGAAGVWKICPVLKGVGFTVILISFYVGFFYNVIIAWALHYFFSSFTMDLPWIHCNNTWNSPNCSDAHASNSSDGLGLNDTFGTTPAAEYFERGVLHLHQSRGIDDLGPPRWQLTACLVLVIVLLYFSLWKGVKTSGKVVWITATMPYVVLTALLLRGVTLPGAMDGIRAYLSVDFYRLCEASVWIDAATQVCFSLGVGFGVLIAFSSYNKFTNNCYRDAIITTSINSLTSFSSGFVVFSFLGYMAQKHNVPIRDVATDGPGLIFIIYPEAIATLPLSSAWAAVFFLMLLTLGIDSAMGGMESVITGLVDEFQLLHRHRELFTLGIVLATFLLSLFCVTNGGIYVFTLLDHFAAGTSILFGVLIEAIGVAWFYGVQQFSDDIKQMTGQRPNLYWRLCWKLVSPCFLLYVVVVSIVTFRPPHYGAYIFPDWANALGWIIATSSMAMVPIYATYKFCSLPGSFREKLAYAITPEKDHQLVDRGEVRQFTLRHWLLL
Procedure: as §4

[6] = biological target: human norepinephrine transporter (Homo sapiens, UniProt P23975); assay: Inhibition of [3H]NE transport into HEK-293 cells expressing the human transporter
Sequence of human norepinephrine transporter (P23975 whole entry): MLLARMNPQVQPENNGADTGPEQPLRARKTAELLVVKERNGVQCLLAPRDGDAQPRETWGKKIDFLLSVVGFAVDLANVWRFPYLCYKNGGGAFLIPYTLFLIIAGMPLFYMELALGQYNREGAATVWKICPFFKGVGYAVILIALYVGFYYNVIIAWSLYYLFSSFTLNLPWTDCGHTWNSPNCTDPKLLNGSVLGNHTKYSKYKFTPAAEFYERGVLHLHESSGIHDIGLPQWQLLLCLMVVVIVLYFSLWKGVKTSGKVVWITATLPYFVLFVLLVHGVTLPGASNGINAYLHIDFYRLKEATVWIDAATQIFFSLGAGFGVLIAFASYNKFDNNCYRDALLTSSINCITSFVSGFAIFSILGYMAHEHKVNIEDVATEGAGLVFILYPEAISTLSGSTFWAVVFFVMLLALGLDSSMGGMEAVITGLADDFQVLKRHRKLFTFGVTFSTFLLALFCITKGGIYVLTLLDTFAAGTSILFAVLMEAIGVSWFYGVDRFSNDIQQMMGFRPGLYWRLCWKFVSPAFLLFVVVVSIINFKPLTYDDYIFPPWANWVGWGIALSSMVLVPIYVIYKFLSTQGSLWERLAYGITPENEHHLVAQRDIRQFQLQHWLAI

[7] = biological target: human serotonin transporter (Homo sapiens, UniProt P31645); assay: Inhibition of [3H]5-HT transport into HEK-293 cells expressing the human transporter
[8] = biological target: T6, rat norepinephrine transport, synaptosomal preparations (Rattus norvegicus, UniProt Q63380); assay: Inhibition of [3H]NE reuptake in rat brain synaptosomes (occipital cortex); type: biochemical
T6 construct: from tissue; host or cells: rat occipital cortex synaptosomes (male Sprague-Dawley)
Procedure: as §4

[9] = biological target: T7, human norepinephrine transporter (hNET) (Homo sapiens, UniProt P23975); assay: Radioligand binding to cloned hNET, [3H]nisoxetine, HEK-293 cell membranes
T7 construct: expressed in transfected cells; host or cells: HEK-293, stably transfected
T7 sequence (P23975 whole entry): as above
Procedure: as §1, §2
To assess binding to the cloned hNET, cells expressing hNET were homogenized in 50 mM Tris-HCl with 300 mM NaCl and 5 mM KCl (pH 7.4). The binding reaction consisted of 5 μg cell membrane protein, 0.5 nM [^3H]nisoxetine (nisoxetine HCl, [N-methyl-^3H], specific activity 82.0 Ci/mmol; Amersham, Arlington Hts., Ill.), and varying concentrations of either unlabeled nisoxetine or the test compound. A reaction to determine non-specific binding consisted of 5 μg cell membrane protein, 0.5 nM [^3H]nisoxetine, and 1 μM final concentration of unlabeled nisoxetine. The reactions were incubated at 22° C. for 60 minutes. Following incubation, the reactions were terminated by rapid filtration through separate GF/B filter strips pretreated with 0.2% polyethylenimine in a 48-well Brandel cell harvester. The cell membrane-containing filter strips were then rinsed five times with ice-cold 0.9% NaCl. After rinsing, individual filters were cut from the strip and placed in a scintillation vial containing 6.5 mL of Redi-Safe (Beckman-Coulter, Fullerton, Calif.).
as §3

[10] = recombinant human P450, AMMC substrate, read-out: Mean CYP2D6 (IC50)

Sequence of hERG (Q12809 whole entry): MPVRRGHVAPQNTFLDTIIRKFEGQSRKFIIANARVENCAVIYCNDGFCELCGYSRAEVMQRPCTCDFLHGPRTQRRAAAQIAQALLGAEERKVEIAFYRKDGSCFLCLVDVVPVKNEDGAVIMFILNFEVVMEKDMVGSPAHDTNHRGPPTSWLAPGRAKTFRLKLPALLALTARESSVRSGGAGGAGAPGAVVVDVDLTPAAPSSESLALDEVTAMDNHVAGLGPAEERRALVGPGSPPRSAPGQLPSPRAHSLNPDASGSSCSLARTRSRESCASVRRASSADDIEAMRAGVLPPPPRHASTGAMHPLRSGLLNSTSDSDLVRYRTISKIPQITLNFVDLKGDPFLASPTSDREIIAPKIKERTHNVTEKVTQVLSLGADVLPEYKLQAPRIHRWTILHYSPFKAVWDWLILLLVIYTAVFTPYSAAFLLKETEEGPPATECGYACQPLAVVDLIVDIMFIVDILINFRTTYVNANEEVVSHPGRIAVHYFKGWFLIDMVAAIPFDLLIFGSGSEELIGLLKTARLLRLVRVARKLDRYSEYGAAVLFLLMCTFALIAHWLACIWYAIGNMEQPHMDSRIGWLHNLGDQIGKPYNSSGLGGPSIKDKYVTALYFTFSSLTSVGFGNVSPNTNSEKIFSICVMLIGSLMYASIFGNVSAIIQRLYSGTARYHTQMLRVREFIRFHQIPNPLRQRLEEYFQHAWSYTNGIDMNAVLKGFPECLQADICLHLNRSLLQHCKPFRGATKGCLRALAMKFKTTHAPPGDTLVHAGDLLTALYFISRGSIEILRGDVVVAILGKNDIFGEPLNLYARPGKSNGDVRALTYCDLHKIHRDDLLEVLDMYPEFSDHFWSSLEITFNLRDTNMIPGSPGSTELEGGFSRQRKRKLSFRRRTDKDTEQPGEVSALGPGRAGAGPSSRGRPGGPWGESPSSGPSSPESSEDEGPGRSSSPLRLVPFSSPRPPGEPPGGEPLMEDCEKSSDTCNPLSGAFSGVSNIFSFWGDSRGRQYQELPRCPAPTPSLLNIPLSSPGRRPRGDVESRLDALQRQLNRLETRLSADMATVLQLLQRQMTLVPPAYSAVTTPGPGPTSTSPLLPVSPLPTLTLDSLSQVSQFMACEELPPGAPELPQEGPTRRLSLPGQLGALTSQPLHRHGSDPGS

Structure (SMILES) | Blocking of hERG channel compared with PRC200-SS (hERG) | Immobility in forced swim test vs saline (Male Sprague-Dawley rats) | Swimming in forced swim test vs saline (Male Sprague-Dawley rats) | Antidepressant activity in forced swim test compared with imipramine (15 mg/kg IP) (Male Sprague-Dawley rats) | Potency (rank-order of potency of binding; S = hSERT, N = hNET, D = hDAT) (hSERT, hNET, hDAT) | Potency Range (difference between most potent and least potent binding) (hSERT, hNET, hDAT) | IC50 (CYP2D6; [10]) | IC50 (hERG) | other results
CNC[C@H](c1ccc2ccccc2c1)[C@H](OC(C)=O)c1ccccc1 [MCJ001-OAc-SS, (1S,2S)-3-(methylamino)-2-(naphthalen-2-yl)-1-phenylpropyl acetate] | weaker than PRC200-SS at blocking this channel | statistically (P<0.04) less immobility | statistically (P<0.04) more swimming behavior | antidepressant activity that was similar to that observed in rats treated with the positive control | N > S > D | 3.4 fold | 0.6 µM | – | IC50 (hERG; read-out: hERG (IC50), Rb+ efflux, eight doses in duplicate): 78.8 µM; Kd ([1]; Geometric Mean ± SEM, HCl salts, read-out: Equilibrium Dissociation Constant (KD) for Transporter Binding, hSERT (S)): 0.055 ± 0.006 µM; Kd ([2]; Geometric Mean ± SEM, HCl salts, read-out: Equilibrium Dissociation Constant (KD) for Transporter Binding, hDAT (D)): 0.15 ± 0.02 µM; Potency of inhibition at CYP2D6, in words (CYP2D6; compared with PRC200-SS): markedly reduced the potency of inhibition at CYP2D6
CNC[C@H](c1ccc2ccccc2c1)[C@H](O)c1ccccc1 [PRC200-SS, (1S,2S)-3-(methylamino)-2-(naphthalen-2-yl)-1-phenylpropan-1-ol, reference compound] | – | statistically (P<0.04) less immobility | statistically (P<0.04) more swimming behavior | antidepressant activity that was similar to that observed in rats treated with the positive control | N > S > D | 45 fold | – | 32.6 µM | Potency (rank order, transport into rat brain synaptosomal preparations) [3]: S > N > D; Ki [4]: 0.00212 ± 0.0009 µM; Ki [5]: 0.061 ± 0.004 µM; Ki [6]: 0.006 ± 0.002 µM; Ki [7]: 0.0028 ± 0.0004 µM; Ki [8]: 0.006 ± 0.002 µM; Potency (rank-order of potency of binding; S = hSERT, N = hNET, D = hDAT) (hSERT, hNET, hDAT; listed as PRC200): N>S>D; IC50 (CYP2D6): 0.08 µM
CNC[C@H](c1ccc2ccccc2c1)[C@H](F)c1ccccc1 [MCJ001-F-SS, (2S,3S)-3-fluoro-N-methyl-2-(naphthalen-2-yl)-3-phenylpropan-1-amine] | weaker than PRC200-SS at blocking this channel | statistically (P<0.04) less immobility | statistically (P<0.04) more swimming behavior | antidepressant activity that was similar to that observed in rats treated with the positive control | S > N > D | 29 fold | 0.06 µM | 51.8 µM | Kd [1]: 0.00082 ± 9e-05 µM; Binding at hSERT compared to PRC200-SS ([1]; in words): greater binding at hSERT; Kd [9]: 0.0013 ± 0.0002 µM; Kd [2]: 0.0235 ± 0.0009 µM; Binding at hDAT compared to PRC200-SS ([2]; in words): Enhanced binding to hDAT

From US8440724B2, “Inhibiting neurotransmitter reuptake” (Mayo Foundation for Medical Education and Research, priority 2008, dated 2013)
